# pIC50: −log10 of the molar value.
# What was measured:
# Human Factor XIIa = Human Factor XIIa (Homo sapiens (Human), UniProt P00748); test: Determination of FXIIa inhibition (fluorogenic substrate H-DPro-Phe-Arg-AFC, IC50 assay); type: biochemical; settings: substrate H-DPro-Phe-Arg-AFC at Km, 25° C.; class scale A-G
# How it was run: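 Human FXIIa incubated at 25° C with fluorogenic substrate H-DPro-Phe-Arg-AFC at its Km concentration and varying compound concentrations. Fluorescence release monitored over 5 min at 25° C; linear rate expressed as % of uninhibited activity to derive IC50.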
# Plasma Kallikrein = Plasma Kallikrein (Homo sapiens (Human), UniProt P03952); test: Determination of related protease inhibition: Plasma Kallikrein (fluorogenic substrate at Km); type: biochemical; settings: 25° C., read-out: IC50 (human PKal)
# Chain of Plasma Kallikrein (P03952 391-638): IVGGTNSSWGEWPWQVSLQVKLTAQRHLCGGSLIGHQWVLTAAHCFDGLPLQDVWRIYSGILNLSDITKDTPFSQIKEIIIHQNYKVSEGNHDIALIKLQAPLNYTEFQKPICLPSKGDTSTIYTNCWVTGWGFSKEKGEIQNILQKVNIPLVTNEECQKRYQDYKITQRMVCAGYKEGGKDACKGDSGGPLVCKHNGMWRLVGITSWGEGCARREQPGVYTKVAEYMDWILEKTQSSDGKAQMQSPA
# Chain of Plasma Kallikrein (P03952 20-390 partner): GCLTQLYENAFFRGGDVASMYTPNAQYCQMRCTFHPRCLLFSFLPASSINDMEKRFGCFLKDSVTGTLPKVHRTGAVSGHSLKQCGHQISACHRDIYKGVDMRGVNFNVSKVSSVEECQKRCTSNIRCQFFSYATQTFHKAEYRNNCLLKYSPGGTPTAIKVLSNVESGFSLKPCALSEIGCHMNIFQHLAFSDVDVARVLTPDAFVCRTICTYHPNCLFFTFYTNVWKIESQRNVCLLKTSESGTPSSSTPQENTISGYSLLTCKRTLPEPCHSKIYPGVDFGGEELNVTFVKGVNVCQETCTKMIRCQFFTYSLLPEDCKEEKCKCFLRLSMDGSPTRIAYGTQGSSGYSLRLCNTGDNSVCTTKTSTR
# How it was run: (§1)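 Human protease + fluorogenic substrate (at Km) + test cpd, varied concns; fluorescence kinetic read 5 min, 25 °C. Linear slope → % activity vs uninhibited control; IC50 at 50% inhibition.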
# [1] = Pharmacokinetics following a single intravenous dose and a single oral dose in male Sprague-Dawley rats (oral bioavailability, half-life); type: in vivo; settings: rat, plasma, 10% DMSO/10% Cremophor EL/80% SWFI; for bioavailability: read-out: F % (oral bioavailability)
# Description: Pharmacokinetic studies of the compounds in Table 16 were performed to assess the pharmacokinetics following a single intravenous dose and a single oral dose in male Sprague-Dawley rats. Two rats were given a single intravenous dose of 1 mL/kg of a nominal 1 mg/mL (1 mg/kg) composition of test compound in 10% DMSO/10% Cremophor EL/80% SWFI vehicle. Example 2191 was dosed at 1 mL/kg of a nominal 2 mg/mL (2 mg/kg) using the same vehicle.
# Two rats were given a single oral dose of 5 mL/kg of a nominal 1 mg/mL (5 mg/kg) composition of test compound in 10% DMSO/10% Cremophor EL/80% SWFI vehicle. Example 2191 was dosed at 5 mL/kg of a nominal 2 mg/mL (10 mg/kg) using the same vehicle.
# Following intravenous dosing, blood samples were collected over a period of 12 h. Sample times were 2, 5, 15 and 30 min then 1, 2, 4, 6, and 12 h. Following oral dosing, blood samples were collected over a period of 24 h. Sample times were 5, 15 and 30 min then 1, 2, 4, 6, 8, 12 and 24 h.
# Following collection, blood samples were centrifuged and the plasma fraction analysed for concentration of test compound by LCMS. Oral bioavailability and half-life calculations from these studies were obtained using Phoenix WinNonlin (v8.0) and are shown below: […]
# FXa = FXa (Homo sapiens (Human), UniProt P00742); test: Determination of related protease inhibition: FXa (fluorogenic substrate at Km); type: biochemical; settings: 25° C.
# Chain of FXa (P00742 235-488): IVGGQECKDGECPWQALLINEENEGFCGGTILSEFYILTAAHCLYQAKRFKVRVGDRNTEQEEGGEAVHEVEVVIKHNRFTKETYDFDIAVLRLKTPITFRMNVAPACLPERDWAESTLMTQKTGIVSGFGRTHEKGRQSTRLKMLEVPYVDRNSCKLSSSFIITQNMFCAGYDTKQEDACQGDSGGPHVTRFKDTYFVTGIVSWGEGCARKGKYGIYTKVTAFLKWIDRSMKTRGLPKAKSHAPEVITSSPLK
# Chain of FXa (P00742 41-179 partner): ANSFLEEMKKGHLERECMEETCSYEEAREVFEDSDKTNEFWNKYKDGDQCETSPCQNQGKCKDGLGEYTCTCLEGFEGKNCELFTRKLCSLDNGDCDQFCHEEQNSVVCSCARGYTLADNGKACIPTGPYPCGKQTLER
# How it was run: as §1
# Thrombin = Thrombin (Homo sapiens (Human), UniProt P00734); test: Determination of related protease inhibition: Thrombin (fluorogenic substrate at Km); type: biochemical; settings: 25° C.
# How it was run: as §1
# FXIa = FXIa (Homo sapiens (Human), UniProt P03951); test: Determination of related protease inhibition: FXIa (fixed substrate concentration of 100 μM); type: biochemical; settings: 25° C.
# Chain of FXIa (P03951 388-625): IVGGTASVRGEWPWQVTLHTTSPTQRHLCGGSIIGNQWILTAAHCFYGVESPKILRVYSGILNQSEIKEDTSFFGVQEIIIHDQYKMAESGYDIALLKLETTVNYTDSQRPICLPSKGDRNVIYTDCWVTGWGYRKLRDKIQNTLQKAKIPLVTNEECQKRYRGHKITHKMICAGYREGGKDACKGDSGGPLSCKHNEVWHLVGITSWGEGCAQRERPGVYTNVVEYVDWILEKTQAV
# Chain of FXIa (P03951 19-387 partner): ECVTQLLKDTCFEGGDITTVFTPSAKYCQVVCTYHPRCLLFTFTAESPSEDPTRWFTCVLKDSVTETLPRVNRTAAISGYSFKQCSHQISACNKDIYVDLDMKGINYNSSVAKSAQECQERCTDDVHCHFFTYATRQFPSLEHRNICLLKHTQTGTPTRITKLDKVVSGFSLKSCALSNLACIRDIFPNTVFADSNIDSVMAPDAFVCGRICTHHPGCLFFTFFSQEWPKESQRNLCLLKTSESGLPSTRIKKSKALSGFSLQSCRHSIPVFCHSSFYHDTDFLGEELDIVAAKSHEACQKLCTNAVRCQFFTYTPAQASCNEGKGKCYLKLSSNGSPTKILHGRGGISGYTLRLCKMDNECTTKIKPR
# Description: Determination of Related Protease Inhibition
# In vitro inhibition of related proteases was determined using an ([…] assay based on standard literature methods (see e.g. Shori et al., Biochem. Pharmacol., 1992, 43, 1209; Bouckaert et al., European Journal of Medicinal Chemistry 110 (2016) 181). Human serine protease enzymes Plasma Kallikrein, KLK1, FXa, Plasmin, Thrombin and Trypsin were assayed for enzymatic activity using an appropriate fluorogenic substrate at Km concentration, FXIa at fixed substrate concentration of 100 μM, and various concentrations of the test compound. Protease activity was measured by monitoring the accumulation of liberated fluorescence from the substrate over […]. The linear rate of fluorescence increase per minute was expressed as percentage (%) activity. IC50 values were calculated as the concentration of inhibitor giving 50% inhibition of the uninhibited enzyme activity (100%).
# KLK1 = KLK1 (Homo sapiens (Human), UniProt P06870); test: Determination of related protease inhibition: KLK1 (fluorogenic substrate at Km); type: biochemical; settings: 25° C.
# Chain of KLK1 (P06870 25-262): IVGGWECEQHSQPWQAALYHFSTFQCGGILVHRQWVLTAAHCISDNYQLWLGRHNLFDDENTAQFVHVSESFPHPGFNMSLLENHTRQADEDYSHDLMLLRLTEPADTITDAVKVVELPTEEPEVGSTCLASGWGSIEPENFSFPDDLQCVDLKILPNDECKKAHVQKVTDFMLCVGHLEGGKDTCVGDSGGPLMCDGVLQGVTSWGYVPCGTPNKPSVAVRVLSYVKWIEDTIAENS
# How it was run: as §1
# Chain of Human Factor XIIa (P00748 373-615): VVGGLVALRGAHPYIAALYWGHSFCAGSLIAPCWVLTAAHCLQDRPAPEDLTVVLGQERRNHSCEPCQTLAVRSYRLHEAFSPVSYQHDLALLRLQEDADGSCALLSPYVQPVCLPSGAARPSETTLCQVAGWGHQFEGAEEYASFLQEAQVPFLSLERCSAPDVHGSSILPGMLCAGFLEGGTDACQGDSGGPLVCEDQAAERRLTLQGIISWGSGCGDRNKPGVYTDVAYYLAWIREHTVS
Structure (SMILES),pIC50 (Human Factor XIIa),pIC50 (Plasma Kallikrein),half-life [1],bioavailability [1],pIC50 (FXa),pIC50 (Thrombin),pIC50 (FXIa),pIC50 (KLK1)
"Cn1ccc(COc2cc(CNc3cccc4c(N)nccc34)ccn2)cc1=O [Example 4301, 4-[[4-[[(1-Amino-5-isoquinolyl)amino]methyl]-2-pyridyl]oxymethyl]-1-methyl-pyridin-2-one]",6.00 to 6.52,< 5.40,2.19 h,8.5%,,,,
"CN1CCC(CCc2ccc(CNc3cccc4c(N)nccc34)cc2)CC1 [Example 2178, 5-N-({4-[2-(1-methylpiperidin-4-yl)ethyl]phenyl}methyl)isoquinoline-1,5-diamine]",7.00 to 8.00,4.40 to 5.00,,,< 4.40,< 4.40,< 4.40,
"CCN1CCC(COc2ccc(CNc3ccc4c(N)nccc4c3)cn2)CC1 [Example 1010, 6-N-({6-[(1-ethylpiperidin-4-yl)methoxy]pyridin-3-yl}methyl)isoquinoline-1,6-diamine]",6.52 to 7.00,5.00 to 5.52,,,4.40 to 5.00,4.40 to 5.00,< 4.40,
"CCN1CCC(OCc2ccc(CNc3ccc4c(N)nccc4c3)c(F)c2)CC1 [Example 2202, 6-N-[(4-{[(1-ethylpiperidin-4-yl)oxy]methyl}-2-fluorophenyl)methyl]isoquinoline-1,6-diamine]",6.52 to 7.00,5.52 to 6.00,,,5.00 to 5.52,5.00 to 5.52,< 4.70,
"CC(C)N1CCC(COc2cc(CNc3cccc4c(N)nccc34)ccn2)CC1 [Example 4299, N5-[[2-[(1-isopropyl-4-piperidyl)methoxy]-4-pyridyl]methyl]isoquinoline-1,5-diamine]",6.52 to 7.00,< 5.40,10.1 h,8.3%,,,,
"CN1CC2C[C@H]1C[C@H]2OCc1ccc(CNc2ccc3c(N)nccc3c2)c(F)c1 (single isomer, unassigned) [Example 2198, N6-(2-fluoro-4-((((4S*,5R*)-2-methyl-2-azabicyclo[2.2.1]heptan-5-yl)oxy)methyl)benzyl)isoquinoline-1,6-diamine]",6.52 to 7.00,5.00 to 5.52,,,5.00 to 5.52,4.40 to 5.00,< 4.70,
"CN1CCC(COc2cc(CNc3ccc4c(N)nccc4c3)ccn2)CC1 [Example 4261, N6-((2-((1-methylpiperidin-4-yl)methoxy)pyridin-4-yl)methyl)isoquinoline-1,6-diamine]",7.00 to 8.00,5.00 to 5.52,,,6.00 to 6.52,5.00 to 5.52,< 4.70,
"CC(C)N1CC2(CN(Cc3ccc(CNc4ccc5c(N)nccc5c4)c(F)c3)C2)C1 [Example 1037, 6-N-{[2-fluoro-4-({6-isopropyl-2,6-diazaspiro[3.3]heptan-2-yl}methyl)phenyl]methyl}isoquinoline-1,6-diamine]",6.00 to 6.52,4.40 to 5.00,,,< 4.40,4.40 to 5.00,< 4.40,5.00 to 5.52
"CN1CCC(CCc2ccc(CNc3ccc4c(N)nccc4c3)cc2)CC1 [Example 2177, N6-(4-(2-(1-methylpiperidin-4-yl)ethyl)benzyl)isoquinoline-1,6-diamine]",6.52 to 7.00,5.52 to 6.00,,,5.00 to 5.52,5.00 to 5.52,< 4.40,
"CCN1CCC(OCc2ccc(CNc3cccc4c(N)nccc34)c(F)c2)CC1 [Example 2201, 5-N-[(4-{[(1-ethylpiperidin-4-yl)oxy]methyl}-2-fluorophenyl)methyl]isoquinoline-1,5-diamine]",7.00 to 8.00,4.40 to 5.00,,,< 4.70,< 4.70,< 4.70,
"Nc1nccc2cc(NCc3ccc(OCC4CCn5ccnc5C4)nc3)ccc12 (stereo not drawn) [Example 1006, N6-((6-((5,6,7,8-tetrahydroimidazo[1,2-a]pyridin-7-yl)methoxy)pyridin-3-yl)methyl)isoquinoline-1,6-diamine]",6.52 to 7.00,5.52 to 6.00,,,5.52 to 6.00,5.00 to 5.52,< 4.40,
"CC(C)N1CCC(COc2ccc(CNc3ccc4c(N)nccc4c3)cn2)CC1 [Example 1012, N6-((6-((1-isopropylpiperidin-4-yl)methoxy)pyridin-3-yl)methyl)isoquinoline-1,6-diamine]",6.52 to 7.00,5.52 to 6.00,,,4.40 to 5.00,5.00 to 5.52,< 4.70,
"Nc1nccc2cc(NCc3ccc(COC4CCN(C5CC5)CC4)cc3)ccc12 [Example 2195, 6-N-[(4-{[(1-cyclopropylpiperidin-4-yl)oxy]methyl}phenyl)methyl]isoquinoline-1,6-diamine]",6.00 to 6.52,5.00 to 5.52,,,4.40 to 5.00,4.40 to 5.00,< 4.40,
"CN1CCC(OCc2ccc(CNc3ccc4c(N)nccc4c3)cc2)CC1 [Example 2185, N6-(4-(((1-methylpiperidin-4-yl)oxy)methyl)benzyl)isoquinoline-1,6-diamine]",6.52 to 7.00,5.00 to 5.52,,,5.00 to 5.52,5.00 to 5.52,< 4.40,
"CN1CCC(OCc2ccc(CNc3ccc4c(N)nccc4c3)c(Cl)c2)CC1 [Example 2192, N6-(2-chloro-4-(((1-methylpiperidin-4-yl)oxy)methyl)benzyl)isoquinoline-1,6-diamine]",6.52 to 7.00,5.00 to 5.52,,,5.52 to 6.00,5.00 to 5.52,< 4.40,
"CN1CCC(CCn2cc(CNc3ccc4c(N)nccc4c3)cn2)CC1 [Example 3254, N6-((1-(2-(1-methylpiperidin-4-yl)ethyl)-1H-pyrazol-4-yl)methyl)isoquinoline-1,6-diamine]",6.00 to 6.52,5.00 to 5.52,,,5.00 to 5.52,5.00 to 5.52,< 4.70,
"CN1CCC(COc2ncc(CNc3ccc4c(N)nccc4c3)cn2)CC1 [Example 1013, 6-N-({2-[(1-methylpiperidin-4-yl)methoxy]pyrimidin-5-yl}methyl)isoquinoline-1,6-diamine]",6.52 to 7.00,5.00 to 5.52,,,5.00 to 5.52,5.00 to 5.52,< 4.70,
"CN1CCC(COc2ccc(CNc3cccc4c(N)nccc34)cn2)CC1 [Example 1009, N5-((6-((1-methylpiperidin-4-yl)methoxy)pyridin-3-yl)methyl)isoquinoline-1,5-diamine]",6.52 to 7.00,5.00 to 5.52,,,< 4.40,< 4.40,< 4.40,
"CC(C)N1C[C@H]2C[C@@H]1CN2CCc1ccc(CNc2cccc3c(N)nccc23)c(F)c1 (stereo in doubt) [Example 2213, N5-[[2-fluoro-4-[2-[(1R,4R)-5-isopropyl-2,5-diazabicyclo[2.2.1]heptan-2-yl]ethyl]phenyl]methyl]isoquinoline-1,5-diamine]",6.52 to 7.00,4.40 to 5.00,,,< 4.40,< 4.40,< 4.40,4.40 to 5.00
"Nc1nccc2c(NCc3ccnc(OCC4CCn5ccnc5C4)c3)cccc12 (stereo not drawn) [Example 4298, N5-((2-((5,6,7,8-tetrahydroimidazo[1,2-a]pyridin-7-yl)methoxy)pyridin-4-yl)methyl)isoquinoline-1,5-diamine]",7.00 to 8.00,< 4.40,,,,< 4.40,4.40 to 5.00,5.00 to 5.52
"CN1CCC(OCc2ccc(CNc3ccc4cnccc4c3)cc2)CC1 [Example 2193, N-(4-(((1-methylpiperidin-4-yl)oxy)methyl)benzyl)isoquinolin-6-amine]",5.00 to 5.52,< 4.70,,,< 4.70,< 4.70,< 4.70,
